Reference: ChEMBL document CHEMBL3046894, “Synthesis and Herbicidal Activity of Pyrimidinyl Salicylic and Thiosalicylic Acids” (J Pestic Sci, 1996)
Active and inactive are the calls of the source. No cut-off for these calls is given here.

What was measured:
Type in all cases: functional, organism-based
[1] = tested on: Cyperus iria; experiment: Pre-emergence herbicidal activity against Cyperus iria assessed as growth inhibition at 25 g a.i/10 a
[2] = tested on: Chenopodium album; experiment: Pre-emergence herbicidal activity against Chenopodium album assessed as growth inhibition at 25 g a.i/10 a
[3] = tested on: Amaranthus retroflexus; experiment: Pre-emergence herbicidal activity against Amaranthus retroflexus assessed as growth inhibition at 25 g a.i/10 a
[4] = tested on: Persicaria nodosa; experiment: Pre-emergence herbicidal activity against Persicaria nodosa assessed as growth inhibition at 25 g a.i/10 a
[5] = tested on: Digitaria sanguinalis; experiment: Pre-emergence herbicidal activity against Digitaria sanguinalis (hairy crabgrass) assessed as growth inhibition at 25 g a.i/10 a
[6] = tested on: Echinochloa crus-galli; experiment: Pre-emergence herbicidal activity against Echinochloa crus-galli (barnyard grass) assessed as growth inhibition at 25 g a.i/10 a
[7] = tested on: Cyperus iria; experiment: Post-emergence herbicidal activity against Cyperus iria assessed as growth inhibition at 25 g a.i/10 a applied 11 days after germination as foliar spray
[8] = tested on: Chenopodium album; experiment: Post-emergence herbicidal activity against Chenopodium album assessed as growth inhibition at 25 g a.i/10 a applied 11 days after germination as foliar spray
[9] = tested on: Amaranthus retroflexus; experiment: Post-emergence herbicidal activity against Amaranthus retroflexus assessed as growth inhibition at 25 g a.i/10 a applied 11 days after germination as foliar spray
[10] = tested on: Persicaria nodosa; experiment: Post-emergence herbicidal activity against Persicaria nodosa assessed as growth inhibition at 25 g a.i/10 a applied 11 days after germination as foliar spray
[11] = tested on: Digitaria sanguinalis; experiment: Post-emergence herbicidal activity against Digitaria sanguinalis (hairy crabgrass) assessed as growth inhibition at 25 g a.i/10 a applied 11 days after germination as foliar spray
[12] = tested on: Echinochloa crus-galli; experiment: Post-emergence herbicidal activity against Echinochloa crus-galli (barnyard grass) assessed as growth inhibition at 25 g a.i/10 a applied 11 days after germination as foliar spray

| SMILES | growth inhibition (GI) [1] | growth inhibition (GI) [2] | growth inhibition (GI) [3] | growth inhibition (GI) [4] | growth inhibition (GI) [5] | growth inhibition (GI) [6] | growth inhibition (GI) [7] | growth inhibition (GI) [8] | growth inhibition (GI) [9] | growth inhibition (GI) [10] | growth inhibition (GI) [11] | growth inhibition (GI) [12] |
| --- | --- | --- | --- | --- | --- | --- | --- | --- | --- | --- | --- | --- |
| COc1cc(OC)nc(Cc2cccc(Cl)c2C(=O)O)n1 | Active | Active | Active | Active | Active | Active | Active | Active | Active | Active | Active | Active |
| CCCOc1cccc(Oc2nc(OC)cc(OC)n2)c1C(=O)O | Active | Active | Active | Active | Active | Active | Active | Active | Active | Active | Active | Active |
| COc1cc(OC)nc(Oc2ccc(I)cc2C(=O)O)n1 | inactive | inactive | inactive | inactive | inactive | inactive | Active | inactive | inactive | Active | inactive | Active |
| COc1cc(OC)nc(Oc2c(Cl)cccc2C(=O)O)n1 | – | – | – | – | – | – | Active | inactive | Active | Active | inactive | inactive |
| COc1cc(OC)nc(Oc2ccc(Cl)cc2C(=O)O)n1 | inactive | Active | Active | inactive | inactive | inactive | Active | Active | Active | inactive | inactive | inactive |
| COc1cc(OC)nc(Oc2c(C)cccc2C(=O)O)n1 | Active | Active | Active | inactive | inactive | Active | Active | inactive | Active | Active | inactive | inactive |
| COc1cc(OC)nc(Oc2cccc(-n3cccc3)c2C(=O)O)n1 | Active | Active | Active | Active | Active | Active | Active | Active | Active | Active | Active | Active |
| COc1cc(OC)nc(Oc2ccc(-n3cccc3)cc2C(=O)O)n1 | inactive | inactive | inactive | inactive | inactive | inactive | Active | inactive | Active | Active | Active | Active |
| COc1cc(OC)nc(Oc2ccc(OC(C)C)cc2C(=O)O)n1 | inactive | inactive | inactive | inactive | inactive | inactive | Active | inactive | inactive | Active | inactive | Active |
| COc1cc(OC)nc(Nc2cccc(Cl)c2C(=O)O)n1 | inactive | inactive | inactive | inactive | inactive | inactive | inactive | inactive | Active | inactive | inactive | inactive |
| COc1cc(OC)nc(Oc2cccc(OC(C)C)c2C(=O)O)n1 | Active | Active | Active | Active | Active | Active | Active | Active | Active | Active | Active | Active |
| COc1cc(OC)nc(Oc2cc(N)ccc2C(=O)O)n1 | inactive | inactive | inactive | inactive | inactive | inactive | Active | Active | Active | Active | inactive | inactive |
| CCSc1cccc(Oc2nc(OC)cc(OC)n2)c1C(=O)O | inactive | inactive | Active | inactive | inactive | inactive | Active | Active | Active | Active | inactive | Active |
| CCCCOc1cccc(Oc2nc(OC)cc(OC)n2)c1C(=O)O | Active | Active | Active | inactive | Active | Active | Active | Active | Active | Active | Active | Active |
| CCCSc1cccc(Oc2nc(OC)cc(OC)n2)c1C(=O)O | inactive | inactive | inactive | inactive | inactive | inactive | inactive | inactive | Active | Active | inactive | inactive |
| CNc1ccc(Oc2nc(OC)cc(OC)n2)c(C(=O)O)c1 | Active | Active | Active | Active | inactive | inactive | Active | Active | Active | Active | Active | Active |
| CCOCCOc1cccc(Oc2nc(OC)cc(OC)n2)c1C(=O)O | Active | Active | Active | Active | Active | Active | Active | Active | Active | Active | Active | Active |
| COc1cc(OC)nc(Oc2ccc(F)cc2C(=O)O)n1 | Active | Active | Active | Active | Active | Active | Active | Active | Active | Active | inactive | Active |
